In one experiment the target is T1, PfFNT wt-GFP (Plasmodium falciparum, UniProt O77389).
T1 construct: The DNA of full-length PfFNT from Plasmodium falciparum 3D7 was cloned as a C-terminal GFP fusion; expressed in transfected cells; intact cells for imaging, LMNG-solubilized membranes or lysates for FCCS
Kind of experiment: FCCS equilibrium competition binding, PfFNT wildtype. The following applies: for complex formed in the absence of a competitor: 70 nM tracer; for Ki: Cheng Prusoff. The method, then:
To analyze the binding properties of unlabeled inhibitors BH296 and […], we determined their inhibition constants (Ki) in equilibrium competition binding assays. For this, we first incubated membrane preparations comprising 10 nM of PfFNT wildtype with labeled BH296 at a concentration of 70 nM. The interaction was then competed with increasing amounts of unlabeled parental compounds BH296 and BH267.meta within a concentration range of 10 pM and 10 µM. The concentration of formed complex between PfFNT-GFP and BH296-DY647 relates to the values observed in the saturation binding assays. […] The corresponding Ki values were then calculated employing the Cheng Prusoff equation [17].
In view of the differences in complex formation of both tracers, we were also interested to see how both unlabeled compounds perform in competition experiments with BH267.meta-DY647 as a probe. The identical PfFNT-GFP membrane preparation as in the previous experiment was incubated with BH267.meta-DY647 at a concentration of 70 nM to allow for complex formation. Different amounts of competitors BH296 and BH267.meta were added to the interaction at concentrations ranging from 10 pM to 10 µM and incubated at room temperature for 1 h to allow the interaction to reach equilibrium. […] A significant amount of 20% of complex remained intact, independent of competitor concentration and incubation time. This finding is of interest because it mirrors the behavior of BH296-DY647 in saturation binding assays, where a subfraction of target appeared incapable of binding to the more space-occupying BH296 (Figure 4d, Table 2).
(§1) FCCS measurements were conducted in 384-well glass-bottom plates (cat. no PS96B-G175, SWISSCI, Switzerland) using an Insight plate reader (Evotec Technologies, Germany) fitted with a U-Apo300 40x water immersion lens, NA 1.15 (Olympus, Japan). The 488 nm laser line of an argon-ion laser and the light of a 633 nm helium–neon laser were used for excitation. Fluorescence fluctuations were recorded for 8 s with 12 repetitions and analyzed afterward using FCS+plus Analyze 1.1P (Evotec technologies, Version 1.2.5g). FCCS analysis was carried out as described previously. Briefly, for measuring the dissociation constant (KD), a titration series of 12 dilutions was prepared, where the concentration of the lysates obtained from HEK cells expressing GFP-fusions of PfFNT WT and G107S was kept constant, and the concentration of the labeled binding partner (BH296-DY647 and BH267.meta-DY647, respectively) was varied. The IC50 values were calculated by plotting the concentration from the dual labeled complex against the concentration of the competitor titrated over a concentration range from 10 µM to 10 pM. Samples were incubated for 1 h at room temperature prior to FCCS measurements to allow the formation of drug target complexes. From the resulting IC50 values, the Ki values were obtained by application of the Cheng Prusoff equation [17]. To assess the rate constants, time-resolved measurements were carried out at different concentrations of the labeled ligand. […] All KD and IC50 values, as well as kinetic parameters, were determined from three independently repeated experiments. The figures show one representative measurement; however, the calculated KD, Ki, kon and koff values are presented as an average of the three measurements ± SD. Error bars denote ± SEM.

The next experiment concerns the target T2, PfFNT G107S-GFP (Plasmodium falciparum, UniProt O77389, G107S).
T2 construct: The DNA of full-length PfFNT from Plasmodium falciparum 3D7 was cloned as a C-terminal GFP fusion; expressed in transfected cells; intact cells for imaging, LMNG-solubilized membranes for FCCS
Kind of experiment: FCCS equilibrium competition binding, PfFNT G107S mutant. Here is the method: Figure 4 Affinity determination of BH296, BH267.meta to PfFNT and PfFNT G107S, and equilibrium saturation binding of BH296 and BH267.meta to PfFNT and PfFNT G107S. […] BH267.meta bound to 100% of the GFP-fusions of wildtype PfFNT. […] (c) Membrane preparations containing 10 nM of PfFNT-GFP were incubated with 70 nM BH296-DY647, and associated complexes competed with free compounds BH267.meta and BH296 to assess their Ki values. […] (e) Membrane preparations containing GFP fusions of mutant PfFNT G107S were mixed with 150 nM of the labeled BH267.meta tracer and competed with BH267.meta and BH296.
The Ki values calculated for the interaction of BH296 and BH267.meta to mutant PfFNT G107S confirm the affinities observed for the direct interaction with labeled inhibitors.
as §1, with “varied.” for “varied. The IC50 values were calculated by plotting the concentration from the dual labeled complex against the concentration of the competitor titrated over a concentration range from 10 µM to 10 pM. Samples were incubated for 1 h at room temperature prior to FCCS measurements to allow the formation of drug target complexes. From the resulting IC50 values, the Ki values were obtained by application of the Cheng Prusoff equation [17]. To assess the rate constants, time-resolved measurements were carried out at different concentrations of the labeled ligand.”, “Error bars denote ± SEM.” left out

Another experiment addresses T3, hsMCT4 (Homo sapiens, UniProt O15427).
T3 construct: expressed in transfected cells
T3 sequence (O15427 1-465): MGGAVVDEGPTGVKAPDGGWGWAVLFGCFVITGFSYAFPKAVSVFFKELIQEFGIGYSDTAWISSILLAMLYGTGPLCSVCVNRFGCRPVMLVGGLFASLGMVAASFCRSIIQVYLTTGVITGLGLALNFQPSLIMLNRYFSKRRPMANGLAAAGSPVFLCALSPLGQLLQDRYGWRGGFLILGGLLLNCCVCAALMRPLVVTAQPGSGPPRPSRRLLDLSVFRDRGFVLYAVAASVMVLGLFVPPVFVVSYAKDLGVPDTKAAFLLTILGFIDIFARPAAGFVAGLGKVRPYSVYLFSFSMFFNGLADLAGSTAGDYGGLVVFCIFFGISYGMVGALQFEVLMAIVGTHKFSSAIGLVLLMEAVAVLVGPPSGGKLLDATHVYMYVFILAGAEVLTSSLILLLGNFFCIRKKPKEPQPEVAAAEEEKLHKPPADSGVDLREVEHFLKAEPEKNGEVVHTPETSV
The experiment can be described thus: Live cell confocal imaging, co-localization with hsMCT4-GFP in HEK cells. The class given is cell-based. As to conditions: 50 nM BH296-DY647, hsMCT4-GFP in HEK cells. The method, then: The monocarboxylate transporter hsMCT4 is a human functional homolog of PfFNT, but both proteins show no similarity on the basis of their primary sequence or transport mechanism.
The confocal laser scanning microscopy was performed on an LSM 510 confocal microscope connected to an Axiovert 200M equipped with a C-Apochromat 40×/1.2 W water immersion objective (Carl Zeiss, Germany). The red fluorophore (Dy-647) was excited using a 633 nm helium–neon laser, whereas the green fluorophore (GFP) was excited using a 488 nm argon-ion laser.

Experiment [1] has as its system FNT-type lactate transporters of the remaining four human-pathogenic plasmodia. The following applies: cited from earlier work.

SMILES strings stand for the structures. “Also recorded” adds a separate entry of the source. Where two headings read alike, the source gives them in different places.

T2 sequence (O77389 whole entry G107S, the tested form may be a part): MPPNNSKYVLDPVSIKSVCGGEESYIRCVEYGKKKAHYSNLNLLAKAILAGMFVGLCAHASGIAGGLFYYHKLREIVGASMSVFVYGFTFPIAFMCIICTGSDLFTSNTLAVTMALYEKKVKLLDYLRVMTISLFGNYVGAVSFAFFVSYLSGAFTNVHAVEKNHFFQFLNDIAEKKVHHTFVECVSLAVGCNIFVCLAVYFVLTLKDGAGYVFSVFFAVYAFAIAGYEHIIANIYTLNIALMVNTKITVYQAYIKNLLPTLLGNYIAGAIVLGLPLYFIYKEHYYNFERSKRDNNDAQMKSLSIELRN
T1 sequence (O77389 whole entry, the tested form may be a part): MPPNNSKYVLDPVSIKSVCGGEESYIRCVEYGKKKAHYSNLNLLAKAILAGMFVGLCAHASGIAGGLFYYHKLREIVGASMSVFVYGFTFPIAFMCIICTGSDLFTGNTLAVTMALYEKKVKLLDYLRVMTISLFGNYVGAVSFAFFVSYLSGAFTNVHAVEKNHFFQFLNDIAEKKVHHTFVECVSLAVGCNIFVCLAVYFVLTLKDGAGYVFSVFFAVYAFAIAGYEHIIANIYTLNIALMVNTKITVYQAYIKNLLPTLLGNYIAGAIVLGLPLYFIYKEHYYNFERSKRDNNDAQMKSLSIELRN

Consider `CCN1/C(=C/C=C/C=C/C2=[N+](CC)c3ccc(S(=O)(=O)O)cc3C2(C)CCCC(=O)NCCOCCOCCOCCOCCC(=O)NCCCOc2ccc(C(=O)/C=C(\O)C(F)(F)C(F)(F)F)cn2)C(C)(C)c2cc(S(=O)(=O)[O-])ccc21` (stereo not drawn) [BH267.meta-DY647], for which the “complex formed in the absence of a competitor” value at PfFNT wt-GFP (10 nM PfFNT-GFP) is 3 nM.
Take `O=C(C=C(O)C(F)(F)C(F)(F)F)c1ccc(O)cc1` [BH296, 4,4,5,5,5-pentafluoro-3-hydroxy-1-(4-hydroxyphenyl)pent-2-en-1-one]: the Ki on PfFNT G107S-GFP was over 10000 nM; on PfFNT wt-GFP (Ki Competitor, fluorescent probe BH267.meta-DY647 70 nM, 1 h room temperature), 47 nM; on PfFNT wt-GFP (Ki Competitor, fluorescent probe BH296-DY647 70 nM, 10 nM PfFNT-GFP) it was 48 ± 2 nM. The “Ki Competitor” value at PfFNT G107S-GFP (fluorescent probe BH267.meta-DY647 150 nM, competitor up to 10 µM) is listed as “did not compete; also recorded: does not interfere”. The “complex remaining intact after competition” value at PfFNT wt-GFP (tracer BH267.meta-DY647, independent of competitor concentration and incubation time) turned out to be 20%.
Consider `CCN1/C(=C/C=C/C=C/C2=[N+](CC)c3ccc(S(=O)(=O)O)cc3C2(C)CCCC(=O)NCCOCCOCCOCCOCCC(=O)NCCCOc2ccc(C(=O)/C=C(\O)C(F)(F)C(F)(F)F)cc2)C(C)(C)c2cc(S(=O)(=O)[O-])ccc21` (stereo not drawn) [BH296-DY647], for which the “complex formed in the absence of a competitor” value at PfFNT wt-GFP (10 nM PfFNT-GFP) was 1.5 nM. Moreover, at hsMCT4, the “co-localization on the plasma membrane” value was “did not show any co-localization”.
Turning to `O=C(/C=C(\O)C(F)(F)C(F)(F)F)c1cccnc1` [BH267.meta], the inhibition constant Ki on PfFNT G107S-GFP (fluorescent probe BH267.meta-DY647 150 nM, competitor up to 10 µM, read-out: Ki Competitor) is 417 ± 16 nM; at PfFNT wt-GFP (fluorescent probe BH267.meta-DY647 70 nM, 1 h room temperature, read-out: Ki Competitor (converted)), 56 nM; at PfFNT wt-GFP (fluorescent probe BH296-DY647 70 nM, 10 nM PfFNT-GFP, read-out: Ki Competitor (converted)) it was 66 ± 6 nM. In addition, the “concentration blocking FNT-type lactate transporters” value in experiment [1] was “sub-micromolar”.
